Data as given in PubChem BioAssay AID1963849 (Molecular Pharmacology Branch, DTP, NCI, 2024).

Test system: 299254-011-R-J1-PDC complex spheroid viability
Experiment: Anticancer human tumor 299254-011-R-J1-PDC patient-derived melanoma cell line growth inhibition [POLQ]
Settings: for IC50: curve of first compound; for viability, T/C: stronger effect = lower value; active = viability on the fitted dose curve at most 10% of control; inactive = the rest
Procedure: Multicellular complex tumor spheroid response to Polymerase (POL) inhibitors (novobiocin, ART-558, RP6685) in combination with a variety of drugs and investigational agents in selected tumor cell lines
The POL inhibitors (novobiocin, ART-558, and RP6685) were evaluated both individually and in combination with standard of care and investigational anticancer small molecules within a complex spheroid model of solid tumors. . Complex spheroids include a stromal component modeled by human endothelial cells (HUVEC) and fibroblasts modeled by human mesenchymal stem cells (MSCs). The concentration ranges selected for each drug and investigational agent were based upon clinically achievable concentrations if the clinical Cmax of the agent was known.
Compounds. The drugs and investigational agents: novobiocin (NSC847541), ART-558 (NSC835418), RP-6685 (NSC848927), peposertib (NSC802822), ceralasertib (NSC780249), elimusertib (NSC800525), camonsertib (NSC841442), AZD-1390 (NSC803789), olaparib (NSC753686), talazoparib (NSC767125), rucaparib (NSC756644), sotorasib (NSC818433), MRTX-1133 (NSC836407), SN-38 (NSC673596), topotecan (NSC609699), epotoside (NSC141540), doxorubicin (NSC123127), gemcitabine (NSC613327), 5-fluorouracil (NSC19893), paclitaxel (NSC125973), vemurafenib (NSC761431), MSA-2 (NSC828583), SN-011 (NSC837082), adavosertib (NSC754352), prexasertib (NSC758257), carboplatin (NSC241240) and oxaliplatin (NSC266046), were obtained from the National Cancer Institute (NCI) Developmental Therapeutics Program Chemical Repository (21). The FDA-approved anticancer drug set is available from the Developmental Therapeutics Program at https://dtp.cancer.gov/organization/dscb/obtaining/. […] The stock solutions were prepared in dimethyl sulfoxide (DMSO, Sigma-Aldrich, St. Louis, MO, cat. D2650), except for the platinum compounds which were prepared in saline (Quality Biological, Gaithersburg, MD, cat. 114-055-101), at 800-fold the tested concentration and stored at -70 degrees C prior to their use. All drugs and investigational agents were tested over a range starting from a high concentration at or near the clinical Cmax and decreasing in half-log increments. If the clinical Cmax for an agent had not been determined, the highest concentration tested was 10 microM, except for SN-38, which was tested at a high concentration of 1 microM.
Cell Culture. All cells were maintained in an incubator at 37 degrees C and 5% CO2 with 95% humidity. The PDC lines were cultured according to standard operating procedures established by the NCI PDMR (https://pdmr.cancer.gov). Table 3 of the manuscript, lists the cell lines along with the number of the three cell types plated to form the mct-spheroids and media for tumor cell growth. After thawing, all PDC lines, except 997537-175-T-J1-PDC and 415267-285-R-J2-PDC, were cultured in Matrigel-coated flasks prepared with a working solution of 1X Ham's F-12 nutrient mix, without supplementation (Thermo Fisher Scientific, cat. 11765054), 100 U/mL penicillin-streptomycin (Thermo Fisher Scientific, cat. 15140122), and 2.5% Matrigel (Corning Inc., Corning, NY, cat. 354248) for the first three passages. The two PDC lines 997537-175-T-J1-PDC and 415267-285-R-J2-PDC were cultured on uncoated flasks. The 857933-349-R-J2-PDC line was cultured in 6C/Colon 1B media containing advanced DMEM/F-12 (Thermo Fisher Scientific, cat. 12634028), 10 mM HEPES (Thermo Fisher Scientific, cat. 15630080), 1X GlutaMAX supplement (Thermo Fisher Scientific, cat. 35050061), 0.1 mg/mL primocin (InvivoGen, San Diego, CA, cat. ant-pm-2), 10% defined fetal bovine serum, heat inactivated (HyClone Laboratories Inc., Logan, UT, cat. SH30070.03HI), 50% L-WRN conditioned media (ATCC, cat. CRL-3276), 1.25 mM N-Acetyl-L-cysteine (Sigma-Aldrich, cat. A9165), 10 mM nicotinamide (Sigma-Aldrich, cat. N0636), 1X B-27 supplement (Thermo Fisher Scientific, cat. 17504044), 1X N-2 supplement (Thermo Fisher Scientific, cat. […]

[1] = second compound 0.0316 µM, first compound 0.0316 µM
[2] = second compound 0.0316 µM, first compound 0.1 µM
[3] = second compound 0.0316 µM, first compound 0.316 µM
[4] = second compound 0.0316 µM, first compound 1 µM
[5] = second compound 0.0316 µM, first compound 3.16 µM
[6] = second compound 0.0316 µM, first compound 10 µM
[7] = second compound 0.1 µM, first compound 0.0316 µM
[8] = second compound 0.1 µM, first compound 0.1 µM
[9] = second compound 0.1 µM, first compound 0.316 µM
[10] = second compound 0.1 µM, first compound 1 µM
[11] = second compound 0.1 µM, first compound 3.16 µM
[12] = second compound 0.1 µM, first compound 10 µM
[13] = second compound 0.316 µM, first compound 0.0316 µM
[14] = second compound 0.316 µM, first compound 0.1 µM
[15] = second compound 0.316 µM, first compound 0.316 µM
[16] = second compound 0.316 µM, first compound 1 µM
[17] = second compound 0.316 µM, first compound 3.16 µM
[18] = second compound 0.316 µM, first compound 10 µM
[19] = second compound 1 µM, first compound 0.0316 µM
[20] = second compound 1 µM, first compound 0.1 µM
[21] = second compound 1 µM, first compound 0.316 µM
[22] = second compound 1 µM, first compound 1 µM
[23] = second compound 1 µM, first compound 3.16 µM
[24] = second compound 1 µM, first compound 10 µM
[25] = second compound 3.16 µM, first compound 0.0316 µM
[26] = second compound 3.16 µM, first compound 0.1 µM
[27] = second compound 3.16 µM, first compound 0.316 µM
[28] = second compound 3.16 µM, first compound 1 µM
[29] = second compound 3.16 µM, first compound 3.16 µM
[30] = second compound 3.16 µM, first compound 10 µM
[31] = second compound 10 µM, first compound 0.0316 µM
[32] = second compound 10 µM, first compound 0.1 µM
[33] = second compound 10 µM, first compound 0.316 µM
[34] = second compound 10 µM, first compound 1 µM
[35] = second compound 10 µM, first compound 3.16 µM
[36] = second compound 10 µM, first compound 10 µM
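Note: spheroids exposed to drugs for one week before measurement.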
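Throughout, for viability, T/C: percent viability relative to DMSO vehicle control taken as 100%.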

COc1cc(C2c3cc4c(cc3C(OC3OC5COC(C)OC5C(O)C3O)C3COC(=O)C23)OCO4)cc(OC)c1O (centres undefined) + COC1C(OC(N)=O)C(O)C(Oc2ccc3c(O)c(NC(=O)c4ccc(O)c(CC=C(C)C)c4)c(=O)oc3c2C)OC1(C)C
inactive: viability, T/C [1] 99% | viability, T/C [2] 85.6% | viability, T/C [3] 101% | viability, T/C [4] 83.7% | viability, T/C [5] 65.8% | viability, T/C [6] 55.1% | viability, T/C [7] 93.8% | viability, T/C [8] 96.1% | viability, T/C [9] 97.4% | viability, T/C [10] 78.3% | viability, T/C [11] 65.3% | viability, T/C [12] 48.2% | viability, T/C [13] 98% | viability, T/C [14] 83.8% | viability, T/C [15] 90.9% | viability, T/C [16] 86.7% | viability, T/C [17] 75.2% | viability, T/C [18] 55.4% | viability, T/C [19] 95.2% | viability, T/C [20] 100% | viability, T/C [21] 99.3% | viability, T/C [22] 101% | viability, T/C [23] 77.2% | viability, T/C [24] 49.9% | viability, T/C [25] 95.5% | viability, T/C [26] 107% | viability, T/C [27] 108% | viability, T/C [28] 95.2% | viability, T/C [29] 63.6% | viability, T/C [30] 59.4% | viability, T/C [31] 103% | viability, T/C [32] 99.7% | viability, T/C [33] 101% | viability, T/C [34] 86.6% | viability, T/C [35] 80.6% | viability, T/C [36] 55.9%
9930 nM: IC50 (second compound 1 µM)
9110 nM: IC50 (second compound 0.1 µM)
> 10000 nM: IC50 (second compound 0.0316 µM) | IC50 (second compound 0.316 µM) | IC50 (second compound 3.16 µM) | IC50 (second compound 10 µM)

COc1cccc2c1C(=O)c1c(O)c3c(c(O)c1C2=O)CC(O)(C(=O)CO)CC3OC1CC(N)C(O)C(C)O1 (centres undefined) + COC1C(OC(N)=O)C(O)C(Oc2ccc3c(O)c(NC(=O)c4ccc(O)c(CC=C(C)C)c4)c(=O)oc3c2C)OC1(C)C
541 nM: IC50 (second compound 10 µM)
564 nM: IC50 (second compound 0.0316 µM)
inactive: viability, T/C [1] 81.9% | viability, T/C [2] 96.5% | viability, T/C [3] 55.2% | viability, T/C [4] 40.7% | viability, T/C [5] 9.45% | viability, T/C [7] 86.8% | viability, T/C [8] 97.5% | viability, T/C [9] 75.7% | viability, T/C [10] 44.9% | viability, T/C [11] 11.2% | viability, T/C [13] 99.2% | viability, T/C [14] 96% | viability, T/C [15] 54.9% | viability, T/C [16] 37.8% | viability, T/C [17] 13.1% | viability, T/C [19] 93% | viability, T/C [20] 87.5% | viability, T/C [21] 76.7% | viability, T/C [22] 49.2% | viability, T/C [23] 11.9% | viability, T/C [25] 92.6% | viability, T/C [26] 95.5% | viability, T/C [27] 76.7% | viability, T/C [28] 45.6% | viability, T/C [29] 10.3% | viability, T/C [31] 105% | viability, T/C [32] 104% | viability, T/C [33] 65.2% | viability, T/C [34] 30%
active: viability, T/C [6] 3.09% | viability, T/C [12] 3% | viability, T/C [18] 0.51% | viability, T/C [24] 0.78% | viability, T/C [30] 0.92% | viability, T/C [35] 10.7% | viability, T/C [36] 1.25%
826 nM: IC50 (second compound 3.16 µM)
909 nM: IC50 (second compound 1 µM)
815 nM: IC50 (second compound 0.1 µM)
527 nM: IC50 (second compound 0.316 µM)
